This passage reports IC50 growth inhibition results from the supplement of paper PMC9673313.

Compound in the assay: Clc1ccc2c(N3CCN(CCCN4CCN(c5ccnc6cc(Cl)ccc56)CC4)CC3)ccnc2c1 [piperaquine]
The method, then: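 Kenyan Plasmodium falciparum field isolates (2008-2021) were tested in a SYBR Green I growth-inhibition assay, either immediately ex vivo (fresh samples) or in vitro after culture adaptation. Cultures were at 1% parasitemia and 2% hematocrit, incubated with serial drug dilutions for 72 h at 37 °C (5% O2, 5% CO2), then read by fluorescence. IC50 was fitted by non-linear regression of the dose-response curve.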

Regarding KDH 21/02/0197, the IC50 growth inhibition amounted to 0.0184 µg/mL. With KSI 13/10/430 the figure was 0.00784 µg/mL; with KSI 13/04/334, 0.0195 µg/mL. Take 601-257: the IC50 growth inhibition amounted to 0.112 µg/mL.

Consider KSI 15/06/782, for which the IC50 growth inhibition is 0.0255 µg/mL. With KDH 14/03/1351 the figure was 0.0107 µg/mL; with KDH 15/04/1616, 0.028 µg/mL; with KDH 16/07/1831, 0.0278 µg/mL. With KDH 16/07/1830, the IC50 growth inhibition was 0.00694 µg/mL.

On to KDH 16/07/1821, for which the IC50 growth inhibition was 0.0191 µg/mL.

For KCH19/06/0013, the IC50 growth inhibition is 0.0146 µg/mL. Then KOM 13/10/0089, with 0.0186 µg/mL; and 601-0154, with 0.0252 µg/mL. With KDH 21/02/0173 the figure was 0.0368 µg/mL; with KDH 11/10/728, 0.105 µg/mL; with KSI 15/06/786, 0.0146 µg/mL. With KOM 21/05/0278 the figure was 0.0027 µg/mL; with KCH 10/06/120, 0.163 µg/mL. For KSI 18/09/0006, the IC50 growth inhibition came out at 0.00686 µg/mL. With KDH 14/05/1397 the figure was 0.0137 µg/mL; with KDH 14/05/1379, 0.0283 µg/mL; with KOM 15/05/416, 0.00162 µg/mL. With KSI 16/07/906 the figure was 0.038 µg/mL.

As for KSI 14/08/627, the IC50 growth inhibition was 0.00419 µg/mL. Then KOM 21/08/0327, with 0.0283 µg/mL.

Regarding KOM 21/08/0340, the IC50 growth inhibition stood at 0.0382 µg/mL. Take KOM 21/02/0237: the IC50 growth inhibition is 0.001 µg/mL. Then KOM 21/05/0271, with 0.0021 µg/mL.

In the case of KOM 19/01/0053, the IC50 growth inhibition was 0.0191 µg/mL. With KSI 21/04/0063 the figure was 0.003 µg/mL; with KOM 13/07/0010, 0.00114 µg/mL; with KCH 16/08 369, 0.00323 µg/mL. Then KSI 16/08/916, with 0.0148 µg/mL; and KCH 14/03/247, with 0.0132 µg/mL. On to KSI 17/10/920, for which the IC50 growth inhibition is 0.00471 µg/mL.

For the test system 601-0132, the IC50 growth inhibition is 0.0171 µg/mL.

MGT 19/09/0054: the IC50 growth inhibition was 0.0326 µg/mL. For the test system KSI 13/3/323, the IC50 growth inhibition amounted to 0.0287 µg/mL. Turning to KCH 14/10/281, the IC50 growth inhibition was 0.00857 µg/mL.

Turning to MDH 19/01/0029, the IC50 growth inhibition is 0.00967 µg/mL.

As to KOM 19/12/0150, the IC50 growth inhibition came out at 0.00909 µg/mL. Then KCH 11/05/145, with 0.012 µg/mL. Then 601-0284, with 0.0176 µg/mL.

As for MDH 12/01/0067, the IC50 growth inhibition is 0.0107 µg/mL. With KDH 16/07/1828, the IC50 growth inhibition worked out at 0.0285 µg/mL.

As for KDH 21/04/0218, the IC50 growth inhibition was 0.003 µg/mL. Then KDH 20/01/0159, with 0.0288 µg/mL. With KOM 18/11/0045 the figure was 0.00771 µg/mL. In the case of KSI 9/06/0001, the IC50 growth inhibition worked out at 0.504 µg/mL. KOM 14/04/215: the IC50 growth inhibition is 0.0255 µg/mL. With KOM 16/07/0610 the figure was 0.00766 µg/mL. Then KSI 15/09/825, with 0.0121 µg/mL; and KDH 11/10/733, with 5.01 µg/mL.

Turning to KOM 15/04/398, the IC50 growth inhibition worked out at 0.00975 µg/mL.

As to KCH 14/10/283, the IC50 growth inhibition was 0.00595 µg/mL. Then KSI 13/06/360, with 0.00681 µg/mL; and KDH 14/05/1396, with 0.0267 µg/mL; and KOM 16/07/0620, with 0.0115 µg/mL. With KCH 18/09/0003, the IC50 growth inhibition is 0.0047 µg/mL. With KOM 14/03/189 the figure was 0.018 µg/mL; with KSI 13/10/422, 0.0199 µg/mL; with KOM 18/07/0005, 0.00889 µg/mL. With KSI 14/01/474 the figure was 0.016 µg/mL; with KSI 16/07/907, 0.0116 µg/mL; with KDH 15/04/1619, 0.0223 µg/mL. With KDH 19/12/0157 the figure was 0.0175 µg/mL; with MDH 13/08/145, 0.0248 µg/mL; with KOM 20/03/0184, 0.0308 µg/mL. KDH 21/08/0250: the IC50 growth inhibition was 0.0617 µg/mL. With KDH 18/07/0010 the figure was 0.0227 µg/mL; with KSI 13/1/307, 0.041 µg/mL. Then KDH 14/05/1400, with 0.027 µg/mL.

601-262: the IC50 growth inhibition was determined as 0.112 µg/mL. Then MGT 21/08/0109, with 0.0004 µg/mL.
